Data: article PMC10195864, “Stereochemical engineering yields a multifunctional peptide macrocycle inhibitor of Akt2 by fine-tuning macrocycle-cell membrane interactions” (Communications Chemistry, 2023)
Where “and” joins values, the source holds several entries; their conditions need not be identical. Equal entries are not always repeated. Entries after “also recorded” stand apart in the source; their conditions may differ. Where two headings read alike, the source gives them in different places. Positions of bridges follow the written chain, without caps; N, C: chain ends. Non-standard residues stand in square brackets, D forms with d. Residues, ends and D or L forms follow the SMILES beside them. R8 = C=CCCCCCC[C@@](C)(N)C(=O)O; S5 = C=CCCC[C@](C)(N)C(=O)O

Legend:
[1] = biological target: T1, pAkt2 (active His6-tagged Akt2) (Homo sapiens, UniProt P31751); assay: ELISA for peptides against full-length pAkt2 protein (serial dilution); assay type: binding; settings: biotinylated ligand immobilized, His6-pAkt2 titrated
T1 construct: purchased Abcam
T1 sequence (P31751 whole entry): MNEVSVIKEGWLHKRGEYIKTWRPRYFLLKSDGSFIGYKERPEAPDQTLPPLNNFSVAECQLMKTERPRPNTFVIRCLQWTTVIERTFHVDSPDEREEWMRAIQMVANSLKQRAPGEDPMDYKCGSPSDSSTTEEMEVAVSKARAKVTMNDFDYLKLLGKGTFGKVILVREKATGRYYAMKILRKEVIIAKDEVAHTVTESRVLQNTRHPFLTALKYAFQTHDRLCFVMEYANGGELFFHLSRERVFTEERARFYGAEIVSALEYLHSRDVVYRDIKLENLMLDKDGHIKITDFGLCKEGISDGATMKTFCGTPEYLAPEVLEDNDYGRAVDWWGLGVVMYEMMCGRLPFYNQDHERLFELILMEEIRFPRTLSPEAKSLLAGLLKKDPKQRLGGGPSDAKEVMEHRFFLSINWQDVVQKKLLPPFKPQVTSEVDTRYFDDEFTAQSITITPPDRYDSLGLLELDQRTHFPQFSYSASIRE
Procedure: A total of 2 μM solution of each biotinylated peptide was prepared in binding buffer. A total of 100 μL of each solution was added to each well of a High-Capacity Streptavidin 96 well plate (Thermo Scientific), and the plate was shaken for 2 h at room temperature. The wells were blocked with 5% milk in 25 mM tris chloride, pH = 7.4, 150 mM NaCl and 0.05% Tween 20 (TBST). The wells were washed with binding buffer five times. Serial dilutions of active His6-tagged Akt2 were made in the binding buffer. A total of 100 μL of each solution was added per well, and the plate was shaken overnight at 4 °C. The wells were washed three times with the binding buffer, then treated for an hour with a 1:1000 dilution of anti 6X His mouse monoclonal [HIS.H8] antibody. A 1:10,000 dilution of goat anti-mouse antibody-Horse Radish Peroxide conjugate in binding buffer was added to the wells for an hour. The plate was washed three times with TBST and once with TBS (25 mM tris chloride, pH = 7.5, 150 mM NaCl), treated with TMB substrate (KPL), and quenched with sulfuric acid, and the absorbance at 450 nm wavelength measured. From the absorbance values at 450 nm wavelength (A450) for each protein concentration, the corresponding blank A450 (no ligand immobilized, same concentration of protein added) was subtracted. They were then fitted by non-linear regression in GraphPad Prism 6.

recombinant Akt3 = system: recombinant Akt3; set-up: method as in PMID 25329478; settings: recombinant Akt; cited from earlier work
pAkt2 = biological target: T2, pAkt2 (Homo sapiens, UniProt P31751); assay: Protein selectivity ELISA, 25 nM protein; assay type: binding; settings: for binding to pAkt2: single-point ELISA, 25 nM protein, A450
T2 construct: purchased Abcam
T2 sequence (P31751 whole entry): as above
Procedure: A total of 1.25 μM biotinylated ligand was prepared by diluting the 1 mM stock in binding buffer (0.1% BSA, 25 mM trisCl, pH = 7.5, 150 mM NaCl, 0.05% Tween20). The prepared ligand solution or 0.125% DMSO (buffer control) in binding buffer was immobilized on a High-Capacity Streptavidin 96 well plate (Thermo Scientific). After washing the excess ligand, the plate was blocked overnight with 1% BSA in TBST. […] After three washes with the binding buffer, the plate was treated for an hour with a 1:1000 dilution of anti-His6 mouse monoclonal antibody in the binding buffer. A 1:10,000 dilution of goat anti-mouse antibody conjugated to Horse Radish Peroxide in binding buffer was added to the wells. The plates were washed four times, five minutes each, with TBST and once with TBS. The color was developed by adding TMB substrate to each well. The reaction was quenched with 0.5 M H2SO4. The absorbance values at 450 nm (A450) were measured on a 96-well plate reader. The Net A450 was obtained by subtracting the absorbance value for the blank control (no immobilized ligand) from each triplicate value obtained for the ligand–epitope interaction.

[2] = biological target: T1, pAkt2 (active His6-tagged Akt2); set-up: method as in PMID 26377818; settings: read-out: EC50 against pAkt2; cited from earlier work
[3] = biological target: T3, target phosphopeptide epitope, Akt2 amino acids 450–481 (pS474) (Homo sapiens, UniProt P31751); assay: Epitope selectivity ELISA, 2.5 µM His6-tagged epitope; assay type: binding; settings: 1.25 µM ligand immobilized, 2.5 µM epitope
T3 construct: made in house; host or cells: chemical solid-phase peptide synthesis
T3 sequence (P31751 450-481 limits assumed): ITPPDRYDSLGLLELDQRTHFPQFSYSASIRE
Procedure: A total of 1.25 μM biotinylated ligand was prepared by diluting the 1 mM stock in binding buffer (0.1% BSA, 25 mM trisCl, pH = 7.5, 150 mM NaCl, 0.05% Tween20). The prepared ligand solution or 0.125% DMSO (buffer control) in binding buffer was immobilized on a High-Capacity Streptavidin 96 well plate (Thermo Scientific). After washing the excess ligand, the plate was blocked overnight with 1% BSA in TBST. 2.5 μM solutions of the His6-tagged target phosphopeptide epitope, Akt2 amino acids 450–481, or His6-tagged scrambled peptide was added to each of the wells and incubated overnight. After three washes with the binding buffer, the plate was treated for an hour with a 1:1000 dilution of anti-His6 mouse monoclonal antibody in the binding buffer. A 1:10,000 dilution of goat anti-mouse antibody conjugated to Horse Radish Peroxide in binding buffer was added to the wells. The plates were washed four times, five minutes each, with TBST and once with TBS. […] The absorbance values at 450 nm (A450) were measured on a 96-well plate reader. The Net A450 was obtained by subtracting the absorbance value for the blank control (no immobilized ligand) from each triplicate value obtained for the ligand–epitope interaction. […]
-FPQF(pS)YSAS-IRE and the scrambled epitope His6–Peg2-ITPPDRYDSLGLLELQRTH-YFFASQPSS-IRE overnight. […] The absorbance at 450 nm is measured to quantitate the binding. […]

[4] = biological target: macrocycle C2, Cy(YYTYTG-rcm); assay: ELISA; biotinylated peptide (2 μM) immobilised on a streptavidin plate; serial dilutions of active His6-tagged Akt2 in binding buffer (0.1% BSA, 25 mM trisCl pH 7.5, 150 mM NaCl, 0.05% Tween20), overnight at 4 °C; detected with anti-His6 antibody; A450 fitted by non-linear regression

| Molecule | binding to pAkt2 (pAkt2) | further results |
| --- | --- | --- |
| C[C@@H](O)[C@@H]1NC(=O)[C@H](Cc2ccc(O)cc2)NC(=O)[C@H]([C@@H](C)O)NC(=O)[C@H](Cc2ccc(O)cc2)NC(=O)[C@H](Cc2ccc(O)cc2)NC(=O)[C@](C)(N)CCCCCCC=CCCC[C@@](C)(C(N)=O)NC(=O)CNC1=O [C2, Cy(YYTYTG-rcm)] (H-[R8]YYTYTG[S5]-NH2; staple 1-8; N-terminus and C-terminus assumed) | – | EC50 [1]: 44 nM and 42 nM |
| NC1(c2ccc(-c3nc4ccn5c(=O)[nH]nc5c4cc3-c3ccccc3)cc2)CCC1 [MK-2206] | – | inhibition of Akt3 relative to Akt1 and Akt2 (recombinant Akt3): five-fold less |
| Cy(4fF-4fF-TYTG-rcm) | higher binding than C2 | – |
| Cy(4fF-YTYTG-rcm) | higher signal than C2 | – |
| Cy(-Y4fF-TYTG-rcm) | higher signal than C2 | – |
| Cy(YYT-4fF-TG-rcm) | decreases binding | – |
| Cy(YYTYT-Tz4) [C1] | binds to the target pAkt2 protein | EC50 [2]: 120 nM; selectivity for pAkt2 over other pAkt isoforms (pAkt2; 25 nM His6-pAkt1, pAkt2, pAkt3): selective for pAkt2 over the other two isoforms; binding to target phosphorylated chemical epitope [3]: better binding affinity for target chemical; also recorded: binds significantly better than the linear non-cyclized; also recorded: is a better binder than the latter |
| Cy(YYTYTG-Tz4) | does not | – |
| Cy(YYTY’T’Grcm) | show no binding | – |
| Cy(Y’YTY’TGrcm) | show no binding | – |
| full-length active His6-tagged Akt2, phosphorylated at Ser474 (pAkt2) (from UniProt P31751 1-481) (enzyme) | – | EC50 [4]: 44 nM |
